Experimental data taken from patent publication US8030499B2, “1,3-dihydro-2H-indole-2-one compound and pyrrolidine-2-one compound fused with aromatic heterocycle” (Taisho Pharmaceutical Co., Ltd., priority 2005, dated 2011).

Assays:
[1] = target: T1, human V1b receptor (Homo sapiens, UniProt P47901); test: V1b receptor binding assay ([3H](Arg8)-vasopressin, crude membranes of CHO cells); conditions: receptor binding test, human V1b, CHO cell membranes
T1 construct: expressed in transfected cells; host or cells: CHO cells
T1 sequence (P47901 1-424): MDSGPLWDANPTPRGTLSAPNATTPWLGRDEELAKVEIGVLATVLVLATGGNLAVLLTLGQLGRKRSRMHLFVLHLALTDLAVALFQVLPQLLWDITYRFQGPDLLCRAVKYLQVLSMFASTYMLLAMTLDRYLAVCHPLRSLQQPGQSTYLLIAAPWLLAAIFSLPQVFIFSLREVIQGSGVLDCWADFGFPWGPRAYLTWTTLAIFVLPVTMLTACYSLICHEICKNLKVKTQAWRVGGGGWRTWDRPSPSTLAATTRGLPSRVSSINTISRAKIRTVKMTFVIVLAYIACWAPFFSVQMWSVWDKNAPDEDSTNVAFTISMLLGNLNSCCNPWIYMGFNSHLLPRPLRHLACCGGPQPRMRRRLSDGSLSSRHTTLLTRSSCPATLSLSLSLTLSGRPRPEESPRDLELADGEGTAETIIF
Protocol: (§1) A summary of the methods is given below.
(§2) Each obtained homogenate was centrifuged for 20 minutes at 50,000×g and 4° C., the sediment was resuspended in a 50 mmol/L Tris hydrochloric acid buffer solution (pH7.4, containing 10 mmol/L magnesium chloride and 0.1% bovine serum albumin), which served as a crude membrane preparation. This crude membrane preparation was added with [^3H] (Arg^8) vasopressin (final concentration: 0.1 nmol/L to 0.4 nmol/L), and each test drug (final concentration: 0.1 nmol/L to lμmol/L or 0.01 nmol/L to 0.1 μmol/L) to 22° C. for 90 minutes. After the end of the reaction, the reaction solution was filtrated using a GF/C glass fiber filter, which had been presoaked in 0.3% polyethyleneimine for two hours. After the GF/C glass fiber filter was dried sufficiently, scintillator was added, and the radioactivity on the filter was measured using a liquid scintillation counter. Binding of [^3H] (Arg^8)-vasopressin in the presence of (Arg^8)-vasopressin, in the amounts of 0.1 μmol/L in the V1b receptor binding assay and 5 μmol/L in the V1a and V2 receptor binding assay, were taken as non-specific binding, and the value obtained by subtracting non-specific binding from the total binding in the absence (Arg^8)-vasopressin served as specific binding.
In addition, regarding the V1b receptor binding assay, the value obtained by, subtracting the amount of binding in the presence of 0.1 μmol/L test drug from the total amount of binding, divided by the amount of specific binding, served as the rate of inhibition (% of inhibition) of the test drug at the concentration tested.

[2] = target: T2, human V1a receptor (Homo sapiens, UniProt P37288); test: V1a receptor binding assay ([3H](Arg8)-vasopressin, crude membranes of 293FT cells); conditions: receptor binding test, 293FT cell membranes
T2 construct: expressed in transfected cells; host or cells: 293FT cells
T2 sequence (P37288 whole entry): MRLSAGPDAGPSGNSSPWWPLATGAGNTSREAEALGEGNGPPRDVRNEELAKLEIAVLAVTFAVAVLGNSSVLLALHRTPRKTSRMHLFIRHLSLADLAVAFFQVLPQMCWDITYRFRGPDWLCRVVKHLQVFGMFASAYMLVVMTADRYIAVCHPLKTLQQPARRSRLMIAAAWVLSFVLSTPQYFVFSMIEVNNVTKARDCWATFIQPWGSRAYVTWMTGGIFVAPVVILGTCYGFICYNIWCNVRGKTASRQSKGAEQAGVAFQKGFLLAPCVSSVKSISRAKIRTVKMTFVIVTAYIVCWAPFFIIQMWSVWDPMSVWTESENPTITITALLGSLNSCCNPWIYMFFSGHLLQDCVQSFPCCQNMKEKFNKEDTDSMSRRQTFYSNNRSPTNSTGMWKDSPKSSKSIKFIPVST
Protocol: as §1, §2

[3] = target: T3, human V2 receptor (Homo sapiens, UniProt P30518); test: V2 receptor binding assay ([3H](Arg8)-vasopressin, crude membranes of 293FT cells); conditions: receptor binding test, human V2, 293FT cell membranes
T3 construct: expressed in transfected cells; host or cells: 293FT cells
T3 sequence (P30518 whole entry): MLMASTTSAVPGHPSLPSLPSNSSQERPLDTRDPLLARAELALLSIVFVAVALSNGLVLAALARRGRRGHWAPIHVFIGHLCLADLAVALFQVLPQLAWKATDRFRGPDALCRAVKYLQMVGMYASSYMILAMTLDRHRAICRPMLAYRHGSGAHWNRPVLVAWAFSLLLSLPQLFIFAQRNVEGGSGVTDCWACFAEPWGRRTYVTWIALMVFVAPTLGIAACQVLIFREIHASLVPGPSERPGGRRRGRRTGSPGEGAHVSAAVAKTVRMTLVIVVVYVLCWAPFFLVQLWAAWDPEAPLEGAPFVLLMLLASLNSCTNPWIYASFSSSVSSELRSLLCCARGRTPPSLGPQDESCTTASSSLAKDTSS
Protocol: as §1, §2

Row | SMILES | IC50 [1] [nM] | IC50 [2] [nM] | IC50 [3] [nM]
1 | COc1ccc(S(=O)(=O)N2C(=O)C(N[C@@H](C)C(=O)N(C)C)(c3ccccc3OC)c3cc(Cl)ccc32)c(OC(F)(F)F)c1 (single isomer, unassigned) [Example 61] | 15 | 1470 | > 10000
2 | COc1ccc(S(=O)(=O)N2C(=O)C(c3ccccc3OC)(N(C)[C@@H](C)C(=O)N(C)C)c3cc(Cl)ccc32)c(OC(F)(F)F)c1 (single isomer, unassigned) [Example 71] | 6.3 | 4050 | > 10000
3 | COc1ccc(S(=O)(=O)N2C(=O)C(O[C@@H](C)C(=O)N(C)C)(c3ccccc3OC)c3cc(Cl)ccc32)c(OC(F)(F)F)c1 (single isomer, unassigned) [Example 81] | 18 | 677 | > 10000
4 | COc1ccc(S(=O)(=O)N2C(=O)C(c3cc(C)ccc3OC)(N3C[C@H](O)C[C@H]3C(=O)N(C)C)c3cc(Cl)ccc32)c(OC(F)(F)F)c1 (single isomer, unassigned) [Example 103] | 2.3 | 504 | 3370
5 | COc1ccc(S(=O)(=O)N2C(=O)C(c3cc(C)ccc3OC)(N3CCCC[C@H]3C(=O)N(C)C)c3cc(Cl)ccc32)c(OC(F)(F)F)c1 (single isomer, unassigned) [Example 116] | 2.9 | 653 | > 10000
6 | COc1ccc(S(=O)(=O)N2C(=O)C(c3cc(C)ccc3OC)(N3C[C@H](O)C[C@H]3C(=O)N(C)C)c3cc(Br)cnc32)c(OC(F)(F)F)c1 (single isomer, unassigned) [Example 120] | 11 | 6790 | > 10000
7 | COc1ccc(S(=O)(=O)N2C(=O)C(c3cc(C)ccc3OC)(N3C[C@H](O)C[C@H]3C(=O)N(C)C)c3cc(C#N)ccc32)c(OC(F)(F)F)c1 (single isomer, unassigned) [Example 126] | 15 | 8240 | > 10000
8 | COc1ccc(S(=O)(=O)N2C(=O)C(c3cc(C)ccc3OC)(N3C[C@H](OCCCN(C)C)C[C@H]3C(=O)N(C)C)c3cc(Cl)ccc32)c(OC(F)(F)F)c1 (single isomer, unassigned) [Example 140] | 1.1 | 355 | 3190
9 | COc1ccc(S(=O)(=O)N2C(=O)C(c3cc(C)ccc3OC)(N3C[C@H](OCC(N)=O)C[C@H]3C(=O)N(C)C)c3cc(Cl)ccc32)c(OC(F)(F)F)c1 (single isomer, unassigned) [Example 147] | 1.2 | 1110 | 5650
10 | COc1ccc(S(=O)(=O)N2C(=O)C(c3cccnc3OC)(N3C[C@H](O)C[C@H]3C(=O)N(C)C)c3cc(Cl)ccc32)c(OC(F)F)c1 (single isomer, unassigned) [Example 170] | 0.56 | 65.1 | 4050
11 | COc1ccc(S(=O)(=O)N2C(=O)C(c3cc(N4CCOCC4)ccc3OC)(N3C[C@H](O)C[C@H]3C(=O)N(C)C)c3cc(Cl)ccc32)c(OC(F)(F)F)c1 (single isomer, unassigned) [Example 191] | 1.8 | 293 | 3340
12 | COc1ccc(S(=O)(=O)N2C(=O)C(c3cc(-c4ccncc4)ccc3OC)(N3C[C@H](O)C[C@H]3C(=O)N(C)C)c3cc(Cl)ccc32)c(OC(F)(F)F)c1 (single isomer, unassigned) [Example 192] | 4.3 | 792 | > 10000
13 | COc1ccc(S(=O)(=O)N2C(=O)C(c3cc(CN(C)C)ccc3OC)(N3C[C@H](O)C[C@H]3C(=O)N(C)C)c3cc(Cl)ccc32)c(OC(F)(F)F)c1 (single isomer, unassigned) [Example 195 A] | 0.56 | 573 | > 10000
14 | COc1ccc(S(=O)(=O)N2C(=O)C(c3cc(CCO)ccc3OC)(N3C[C@H](O)C[C@H]3C(=O)N(C)C)c3cc(Cl)ccc32)c(OC(F)(F)F)c1 (single isomer, unassigned) [Example 217] | 0.96 | 404 | 3100
15 | COc1ccc(S(=O)(=O)N2C(=O)C(c3cc(CCN4CCCCC4)ccc3OC)(N3C[C@H](O)C[C@H]3C(=O)N(C)C)c3cc(Cl)ccc32)c(OC(F)(F)F)c1 (single isomer, unassigned) [Example 225] | 0.32 | 101 | 5050
